Publication PMC8238948, “Potent inhibitors of toxic alpha-synuclein identified via cellular time-resolved FRET biosensors” (NPJ Parkinson's Disease, 2021)
“Also recorded” adds a separate entry of the source. Counter-ions that a name gives are not always drawn. Like-named read-outs stand apart in the source and are kept apart here.

Tests used:
[1] = tested on: SH-SY5Y cells overexpressing unlabeled wild-type (WT) αSN; assay: CytoTox-Glo cytotoxicity assay: rescue of αSN-induced cytotoxicity; type: cell-based, human; conditions: for rescue of αSN-induced cytotoxicity: dose response, 48-h exposure; for rescue of toxicity in three-dose preliminary screen: three-dose assay; for EC50: read-out: EC50, protection of SH-SY5Y cells from αSN-induced death
Description: Hit compounds were evaluated for rescue of αSN-induced cytotoxicity in using an SH-SY5Y neuroblastoma cell model of alpha-synucleinopathy[18],[69]–[72]. […] A seven-point CRC for RO, BAY, DEM, and Anle138b (positive control compound[41],[73]) was performed to determine IC50 for each compound. […]
Cell cytotoxicity was measured using the CytoTox-Glo (Promega Corporation) Luminescence Assay Kit. SH-SY5Y human neuroblastoma cells were plated at a density of 5 × 10^6 cells/plate in 100 mm plate (Corning) and transfected with unlabeled WT αSN or equivalent vector-only control for 24 h. The transfected cells were then plated at a density of 5000 cells/well in white solid 96-well plate (Corning) with a total volume of 100 μL, followed by treatment with hit compounds spanning a range of concentrations (0.1 nM to 100 μM), as well as DMSO-only controls, for another 48 h. After incubation, 50 μL of CytoTox-Glo Cytotoxicity Assay Reagent was added to all wells followed by mixing by orbital shaking and incubation in the dark for 15 min at RT. Luminescence readings were measured using a Cytation3 Cell Imaging Multi-Mode Reader luminometer (BioTek). After the first read, 50 μL of Lysis Reagent was added, incubated for 15 min at RT, and a second read performed. Total viable cellular luminance was determined by the difference between the first and second luminescence signal and total cellular viability is determined by normalizing to the no-treatment samples.

[2] = tested on: primary mouse hippocampal neurons treated with murine-PFF; assay: Primary neuron model of αSN PFF pathology; type: cell-based; conditions: 1 µM compound, co-treatment with murine-PFF for 12 days
Description: As described previously, numerous in vivo and in vitro alpha-synucleinopathy mouse models have been developed using treatment with sonicated αSN PFF to model pathology. PFF treatment of primary mouse hippocampal neurons results in neurotoxicity and increased phosphoserine-129 (pS^129) immunoreactivity, a marker for alpha-synucleinopathy pathology[87],[88]. These effects can be produced using either human-PFF or murine-PFF with the murine-PFF providing a stronger response. Primary neurons (7 days in vitro (DIV)) were treated for 12 days with murine-PFF or PBS and 1 µM hit compound or DMSO (compound vehicle). Neurons were fixed and stained for NeuN (neuronal nuclei), Map2 (neurite and neuronal morphology), and 81a (pS^129) (see Supplementary Fig. 16). […] Future studies focused on hit-to-lead optimization will focus on these nuances to resolve hit compound’s MOA.
Primary neuronal cultures were prepared from CD1 embryos on E16–18, as previously described. Primary mouse neuron protocol was approved by the University of Pennsylvania Institutional Animal Care and Use Committee. Tissue culture plates and coverslips were coated with Poly-D-lysine (Sigma) before addition of cells. Neurons were plated in 96-well plates (60,000 cells/cm^2). Cultures were maintained in Neurobasal medium supplemented with B27 and Glutamax (all from Invitrogen).
PFF treatment was performed at 7 DIV and cultures were incubated for a further 12 days prior to fixation and analysis. […] PFF concentrations are expressed as the total equivalent αSN monomer content in the preparation. […]
Cultured neurons were fixed by replacing media with warm PFA (4% in PBS containing 4% sucrose) for 15 min at RT. […] Image analysis and quantification was performed using the InCell Toolbox Analyzer software (GE Healthcare Life Sciences). The total integrated area for 81a immunopositivity was quantified for each sample and then normalized (divided) by the number of NeuN-positive objects in the fields examined.

[3] = target: T1, 3FY-αSN (monomeric αSN) (Homo sapiens, UniProt P37840); assay: Protein-observed fluorine NMR (PrOF NMR); type: binding; conditions: for 19F chemical shifts / resonance broadening on titration: 20 μM 3FY-αSN, compound titration
T1 construct: made in house
Description: PrOF NMR provides a perturbation-free method to monitor αSN conformation and structure through the incorporation of F19-labeled 3-fluoro-Tyrosine into recombinant protein[89].
Experiments were run on a Bruker 600-MHz Avance NEO (6001), equipped with a 5 mm triple resonance cryoprobe. 3FY-αSN was diluted in PBS, pH = 7.4 buffer by the addition of D2O and 0.1% trifluoroacetic acid (TFA) to final concentrations of 5 and 0.07%, respectively, in a total NMR sample volume of 150 µL. Two one-dimensional ^19F NMR spectra were taken of the protein sample at an O1P of −75 ppm, NS = 16, D1 = 1 s, and AQ = 0.5 s (TFA reference set to −75.25 ppm) and an O1P of −136 ppm, NS = 3072, D1 = 0.6 s, and AQ = 0.05 s (protein resonances). Ligand stock solutions of 1–10 mM were prepared in DMSO and titrated into the protein solutions (20 μM). As a control experiment, in a separate NMR tube, DMSO was added to a final concentration of 0.5, 0.6, 0.8, 1.5, and 2.5% to control for any solvent-induced chemical shifts. For each concentration, a TFA reference spectrum and a protein 1D-^19F NMR spectrum were acquired.
Supplemental Figure 20. PrOF NMR experiments with hit compounds and fluorinated αSN support a lack of binding to monomeric αSN. (a) 19F NMR spectrum and assignments of 3FY- αSN. The resulting spectrum is consistent with the spectrum of monomeric 3FY- αSN reported by 4. Corresponding assignments are used from that report. Stacked 19F NMR spectra with an increasing concentration of (b) Ro 90-7501 and (c) DEM HCl […]
compound binding to monomeric αSN. An exception is at high concentrations of Ro 90-7501(110 μM) a small degree of chemical shift perturbation is observed.
(1 picture or pasted object on this page, not shown here)

| SMILES | rescue of αSN-induced cytotoxicity [1] | rescue of toxicity in three-dose preliminary screen [1] | pS129 pathology staining (81a/NeuN) [2] | 19F chemical shifts / resonance broadening on titration [3] | EC50 ([1]; Homo sapiens, SH-SY5Y, 72-h transfection, 48-h exposure to compound, seven-point CRC) | IC50 ([1]; Homo sapiens, SH-SY5Y, 72-h transfection, 48-h exposure to compound, seven-point CRC, read-out: IC50, inhibition of αSN-induced toxicity) | 19F chemical shift perturbation at high concentration ([3]; 20 µM 3FY-αSN, 110 μM compound) | EC50 ([1]; 72-h transfection, 48-h exposure to compound, seven-point CRC) |
| --- | --- | --- | --- | --- | --- | --- | --- | --- |
| COC(=O)C1=C(C)NC(C)=C([N+](=O)[O-])C1c1ccccc1C(F)(F)F (racemic) [BAY, (±)-Bay K 8644] | reduced effect; also recorded: did not rescue | only mild recovery | reduced the αSN pathology; also recorded: reduces the pS^129 phenotype |  |  |  |  |  |
| CN(C)[C@@H]1C(O)=C(C(N)=O)C(=O)[C@@]2(O)C(O)=C3C(=O)c4c(O)ccc(Cl)c4[C@@H](O)[C@H]3C[C@@H]12 [DEM, Demeclocycline HCl] | clear dose-dependent rescue of toxicity | strong response | reduced the αSN pathology; also recorded: reduces the pS^129 phenotype | no significant chemical shifts or resonance broadening | 65 nM | 65 nM |  |  |
| Nc1ccc(-c2nc3ccc(-c4nc5ccc(N)cc5[nH]4)cc3[nH]2)cc1 [RO, Ro 90–7501] | clear dose-dependent rescue of toxicity | strong response | little to no effect | no significant chemical shifts or resonance broadening |  |  | small degree of chemical shift perturbation | 78 nM |
